Laboratory results as given in US20100267822A1, “AURONES AS ESTROGEN RECEPTOR MODULATORS AND THEIR USE IN SEX HORMONE DEPENDENT DISEASES” (priority 2009, published 2010).

How the values were obtained:
[1] = target: T1, Recombinant human ERbeta protein (Homo sapiens, UniProt Q92731); assay: [3H] estradiol binding to recombinant human ERbeta (radioligand displacement, MDS cat No. 226050); settings: test compound 10 μM; 0.5 nM [3H] estradiol; 2 hours at 25° C.; in comparison to the vehicle control (1% DMSO)
T1 construct: purchased MDS Pharma Services 226050; host or cells: insect Sf9 cells
Procedure: (§1) Recombinant human ERbeta protein isolated from insect Sf9 cells (MDS Pharma Services: cat No. 226050) was incubated with the test substance (dissolved in 1% DMSO) and 0.5 nM [^3H] estradiol for 2 hours at 25° C. in an incubation buffer (10 mM TrisHCl pH 7.4, 0.1% BSA, 10% Glycerol, 1 mM DTT). At the end of the incubation period, receptor-bound [^3H] estradiol was quantified. Stimulating or inhibiting effects equal or larger than 50% in comparison to vehicle control (1% DMSO) were considered to be significant. The final concentration of the test compound was 10 μM.
(§2) The assays described in Examples 4 and 5 were conducted by MDS (catalogue number 226010 for ERalpha and 226050 for ERbeta, respectively) following procedures established in literature (Obourn et al., Biochemistry 1993, 32: 6229-6236).

[2] = target: T2, Recombinant human ERalpha protein (Homo sapiens, UniProt P03372); assay: [3H] estradiol binding to recombinant human ERalpha (radioligand displacement, MDS cat No. 226010); settings: test compound 10 μM; 0.5 nM [3H] estradiol; 2 hours at 25° C.; in comparison to the vehicle control (1% DMSO)
T2 construct: purchased MDS Pharma Services 226010; host or cells: insect Sf9 cells (printed as '519')
T2 sequence (P03372 1-595): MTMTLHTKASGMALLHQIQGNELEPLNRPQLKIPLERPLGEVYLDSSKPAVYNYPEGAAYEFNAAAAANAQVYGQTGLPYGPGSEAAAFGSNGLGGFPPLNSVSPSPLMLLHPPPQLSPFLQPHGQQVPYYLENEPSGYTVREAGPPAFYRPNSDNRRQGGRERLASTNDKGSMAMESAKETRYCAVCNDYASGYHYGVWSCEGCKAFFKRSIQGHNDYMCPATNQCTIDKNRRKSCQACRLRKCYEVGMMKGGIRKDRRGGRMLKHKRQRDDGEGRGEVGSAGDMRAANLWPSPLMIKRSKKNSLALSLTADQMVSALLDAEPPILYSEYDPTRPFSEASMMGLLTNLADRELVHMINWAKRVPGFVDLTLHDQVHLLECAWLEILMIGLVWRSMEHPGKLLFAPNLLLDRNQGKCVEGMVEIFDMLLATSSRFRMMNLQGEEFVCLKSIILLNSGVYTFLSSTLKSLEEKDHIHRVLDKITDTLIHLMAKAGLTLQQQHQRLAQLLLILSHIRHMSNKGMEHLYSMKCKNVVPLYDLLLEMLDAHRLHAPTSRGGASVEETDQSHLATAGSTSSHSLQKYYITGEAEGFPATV
Procedure: as §1, with “ERalpha” for “ERbeta”, “[…]” for “Sf9”, “226010)” for “226050)”
as §2

T1 sequence (Q92731 whole entry): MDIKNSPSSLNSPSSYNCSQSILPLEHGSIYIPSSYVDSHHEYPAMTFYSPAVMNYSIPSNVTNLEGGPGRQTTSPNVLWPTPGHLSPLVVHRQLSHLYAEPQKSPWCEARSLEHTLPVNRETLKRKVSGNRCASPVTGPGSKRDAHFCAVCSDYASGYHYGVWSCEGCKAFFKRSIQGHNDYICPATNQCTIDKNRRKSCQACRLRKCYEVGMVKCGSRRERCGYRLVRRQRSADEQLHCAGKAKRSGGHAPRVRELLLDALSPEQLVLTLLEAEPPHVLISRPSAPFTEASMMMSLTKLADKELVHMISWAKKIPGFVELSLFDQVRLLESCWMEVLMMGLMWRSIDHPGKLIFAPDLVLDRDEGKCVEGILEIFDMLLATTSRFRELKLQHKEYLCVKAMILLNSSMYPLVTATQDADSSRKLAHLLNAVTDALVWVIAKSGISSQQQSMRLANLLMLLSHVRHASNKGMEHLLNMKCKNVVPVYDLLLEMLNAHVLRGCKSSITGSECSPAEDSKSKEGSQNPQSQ

inhibition at 10 µM [1] | inhibition at 10 µM [2] | SMILES
13% | 2% | O=C1/C(=C/c2ccc(O)cc2O)Oc2cc(O)cc(O)c21 [SM29 (3), 2′,4,4′,6-Tetrahydroxyaurone]
91% | 18% | O=C1/C(=C/c2ccc(O)cc2)Oc2cc(O)cc(O)c21 [SM30 (3), 4,4′,6-Trihydroxyaurone]
